Earlier results as cited in US20110257197A1 (Nanjing Cavendish Bio-Engineering Technology Co., Ltd., priority 2008, published 2011).
Converted amounts (≈) assume the structure as drawn. “Also recorded” adds a separate entry of the source. Where two headings read alike, the source gives them in different places.

Legend:
rat = conditions: i.v.
mice [1] = test system: mice
[2] = in vivo
[3] = in vivo; remark: listed apart in the source
mice [4] = test system: mice; remark: listed apart in the source
red blood cell = conditions: i.v.
guinea pig = conditions: indicates possibility of causing allergy
mice [5] = conditions: i.v.
rodent = conditions: two-year studies
Aspergillus fungi = conditions: in vitro
[6] = test system: Scedosporium and Fusarium species; conditions: in vitro
[7] = test system: Candida species (including strains of Candida krusei, Candida glabrata, and Candida albicans resistant to fluconazole); conditions: in vitro
[8] = listed as sulfobutyl ether β-cyclodextrin sodium

Molecule: CC(O)CO (stereo not shown) [propylene glycol]
- LD50 (rat): i.v. LD50 ≧ 5000 mg/kg.
- NOAEL of maternal toxicity in teratogenic sensitive period (mice [1]): 1600 mg/kg/day. Ethanol could cause
- NOAEL of teratogenic toxicity (mice [1]): 1600 mg/kg/day. Ethanol could cause
- NOAEL of maternal toxicity in teratogenic sensitive period (rats): 1600 mg/kg/day. Ethanol could cause
- NOAEL of teratogenic toxicity (rats): 1600 mg/kg/day. Ethanol could cause
- long term fertility study [2]: studies showed that no abnormity had

Molecule: sulfobutyl ether β-cyclodextrin sodium [SBECD]
- findings on repeated administration [3]: vacuale formation in the urinary-tract epithelium; also recorded: activated macrophages in liver and lung
- dose at which the weight of mice was significantly decreased (mice [4]): 18 mg/kg/day or higher
- LD50 (rat): LD50 > 2000 mg/kg
- concentration of significant heamolysis (red blood cell): at 0.04 mg/ml.
- concentration at which mild hemolysis occurs (red blood cell; [8]): 20000 ng/mL
- concentration of significant heamolysis (red blood cell; [8]): 40000 ng/mL
- guinea pig maximization test (GPMT) result (guinea pig): positive
- LD50 (mice [5]): LD50 > 2000 mg/kg
- carcinogenicity (pancreatic carcinoma) (rodent): carcinogenic

Molecule: C[C@@H](c1ncncc1F)[C@](O)(Cn1cncn1)c1ccc(F)cc1F [voriconazole]
- activity against all tested Aspergillus fungi (Aspergillus fungi): active
- activity against other pathogenic fungi such as Scedosporium and Fusarium species [6]: in vitro activity
- solubility in water (pH 3): 200 µg/mL (≈ 573 µM)
- solubility in water (pH 7): almost insoluble
- activity against Candida species [7]: active

Molecule: CCO [ethanol]
- LD50 (rat): ethanol, in rat, i.v. LD50 = 1973 mg/kg;
- LD50 (mice [5]): 1440 mg/kg
